Reference: PubChem BioAssay (NCI)
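Tested at 5 concentrations; 48 h exposure; 96-well plates; endpoints linearly interpolated, else capped at highest concentration. The concentration for 50% growth inhibition is given as GI50. TGI: total growth inhibition.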

Key:
Test in all cases: growth of human tumour cells (NCI), 48 h
M19-MEL melanoma = system: M19-MEL melanoma
HOP-18 NSCLC = system: HOP-18 NSCLC
U251 CNS = system: U251 CNS
KM20L2 colon = system: KM20L2 colon
SNB-19 CNS = system: SNB-19 CNS
NCI-H522 lung = system: NCI-H522 lung
SK-MEL-5 melanoma = system: SK-MEL-5 melanoma
SK-MEL-28 melanoma = system: SK-MEL-28 melanoma
DU-145 prostate = system: DU-145 prostate
BT-549 breast = system: BT-549 breast

Compound | TGI (M19-MEL melanoma) | TGI (HOP-18 NSCLC) | TGI (U251 CNS) | TGI (KM20L2 colon) | TGI (SNB-19 CNS) | TGI (NCI-H522 lung) | TGI (SK-MEL-5 melanoma) | TGI (SK-MEL-28 melanoma) | GI50 (M19-MEL melanoma) | GI50 (HOP-18 NSCLC) | GI50 (KM20L2 colon) | GI50 (SNB-19 CNS) | GI50 (SK-MEL-28 melanoma) | GI50 (NCI-H522 lung) | GI50 (SK-MEL-5 melanoma) | GI50 (U251 CNS) | TGI (DU-145 prostate) | TGI (BT-549 breast)
Cn1c(=O)nc2n(-c3cccc(F)c3)c3ccccc3nc-2c1=O | 5.3 µM | > 100 µM | 48.9 µM | 45.4 µM | 48.6 µM | 38.1 µM | 27.3 µM | – | – | – | – | – | – | – | – | – | – | –
CO/C1=C\C(C)=C\C(C)C(O)C(C)C/C(C)=C/C=C/C(OC)C(C(C)C(O)C(C)C2(O)CC(O)C(C)C(C(C)C)O2)OC1=O (stereo not given) | 3.12 µM | 21.9 µM | 17 µM | – | 24.9 µM | – | 0.00177 µM | 23.5 µM | – | – | – | – | – | – | – | – | – | –
Cc1c(C(=O)NCCO)[n+](=O)c2cc(Cl)ccc2n1[O-] | > 100 µM | > 100 µM | > 100 µM | > 100 µM | > 100 µM | – | > 100 µM | > 100 µM | – | – | – | – | – | – | – | – | – | –
CC1(C)OC(=O)C=C([O-])O1.CC1(C)OC(=O)C=C([O-])O1.O=S(=O)([O-])c1ccc([O-])c2ncccc12.O=S(=O)([O-])c1ccc([O-])c2ncccc12.[Ti+4] | > 100 µM | > 100 µM | – | > 100 µM | > 100 µM | > 100 µM | > 100 µM | > 100 µM | > 100 µM | 26 µM | 43.3 µM | > 100 µM | > 100 µM | 52.4 µM | 92 µM | – | – | –
COc1ccc2c(c1OC)C1=C(C2=O)c2cc3c(cc2CCN1)OCO3 | > 100 µM | > 100 µM | – | 41 µM | – | – | 84.3 µM | > 100 µM | – | – | – | – | – | – | – | – | – | –
CCNC(=O)C#CC(=O)NCC | > 100 µM | > 100 µM | > 100 µM | > 100 µM | > 100 µM | > 100 µM | > 100 µM | > 100 µM | > 10 µM | > 10 µM | > 10 µM | > 10 µM | > 100 µM | – | > 10 µM | > 10 µM | – | –
COc1ccc(C(N)=O)cc1N=NN(C)C | > 100 µM | > 100 µM | > 100 µM | > 100 µM | > 100 µM | > 100 µM | > 100 µM | > 100 µM | – | – | – | – | – | – | – | – | – | –
CN1NC2(CCCCC2)ON=C1c1ccccc1 | – | > 100 µM | > 100 µM | > 100 µM | > 100 µM | > 100 µM | > 100 µM | > 100 µM | – | – | – | – | – | – | – | – | – | –
O=C1C[C@@H]2C(COC(=O)c3ccccc3)N(OCc3ccccc3)C[C@@H]2O1 (stereo not given in full) | > 100 µM | > 100 µM | > 100 µM | > 100 µM | > 100 µM | > 100 µM | > 100 µM | > 100 µM | – | – | – | – | – | – | – | – | – | –
N=c1nnc(=O)c2c(s1)-n1ncc(C(=O)O)c1NN2 | > 100 µM | > 100 µM | > 100 µM | > 100 µM | > 100 µM | > 100 µM | > 100 µM | > 100 µM | – | – | – | – | – | – | – | – | – | –
C=C=C(CC)C(C(=O)OC)N(CC)CC (stereo not given) | > 100 µM | > 100 µM | > 100 µM | > 100 µM | > 100 µM | > 100 µM | > 100 µM | > 100 µM | – | – | – | – | – | – | – | – | – | –
CC(=O)O[C@H]1CC[C@@]2(C)C(=CC[C@H]3C4=CC=C(C(C)=O)[C@@]4(C)CCC32)C1 (stereo not given in full) | > 100 µM | > 100 µM | > 100 µM | > 100 µM | > 100 µM | 46.1 µM | 40.3 µM | > 100 µM | – | – | – | – | – | – | – | – | – | –
COc1cccc(C(=O)N2CCc3ccccc32)c1OC | > 100 µM | > 100 µM | > 100 µM | > 100 µM | > 100 µM | > 100 µM | > 100 µM | > 100 µM | – | – | – | – | – | – | – | – | – | –
O=C1CSC(/C(=C\c2ccc(Cl)cc2)c2nc3ccccc3[nH]2)=N1 | 28.8 µM | – | 25.6 µM | 52.1 µM | 33.9 µM | 12.6 µM | 24.6 µM | 32.6 µM | – | – | – | – | – | – | – | – | 26.2 µM | 36.6 µM
CCCCCCCC(=O)OC(CBr)COC(=O)C(C)(C)C (stereo not given) | > 100 µM | > 100 µM | > 100 µM | > 100 µM | > 100 µM | > 100 µM | > 100 µM | > 100 µM | – | – | – | – | – | – | – | – | – | –
CCC(=O)C(C)C1=Nc2nnc(CCCCCCCc3nnc4n3C(=O)C(C(C)C(=O)CC)=N4)n2C1=O (stereo not given) | > 100 µM | > 100 µM | > 100 µM | > 100 µM | > 100 µM | > 100 µM | > 100 µM | > 100 µM | – | – | – | – | – | – | – | – | – | –
COC(=O)c1sc(C(=O)OC)c2c1CSC2 | > 100 µM | > 100 µM | > 81 µM | > 100 µM | > 85.8 µM | > 100 µM | > 100 µM | > 100 µM | – | – | – | – | – | – | – | – | > 100 µM | > 100 µM
COC1OC(CO)C(O)C(O)C1Br (stereo not given) | > 100 µM | > 100 µM | > 100 µM | > 100 µM | > 100 µM | > 100 µM | > 100 µM | > 100 µM | – | – | – | – | – | – | – | – | – | –
O=C1C=C(Br)C(=O)C12CCc1ccccc12 (stereo not given) | 36.5 µM | 16.1 µM | 41.8 µM | 64.5 µM | 66.6 µM | 10.2 µM | 34.6 µM | 27.2 µM | – | – | – | – | – | – | – | – | 31.7 µM | 34.2 µM
O=c1cc2ccccc2nn1Cc1ccccc1Cl | > 100 µM | > 100 µM | > 100 µM | > 100 µM | > 100 µM | – | > 100 µM | > 100 µM | – | – | – | – | – | – | – | – | – | –
C1CCN(c2nsc(N3CCCCC3)n2)CC1 | > 100 µM | > 100 µM | > 100 µM | > 100 µM | > 100 µM | > 100 µM | > 100 µM | > 100 µM | – | – | – | – | – | – | – | – | – | –
COc1cc2noc(-c3ccccc3)c2cc1OC | > 100 µM | > 100 µM | > 100 µM | > 100 µM | > 100 µM | > 100 µM | > 100 µM | – | – | – | – | – | – | – | – | – | – | –
CC(=O)OCCOCNC(=S)N/N=C(\C)c1cnc2ccccc2n1 | 77.1 µM | > 100 µM | > 100 µM | > 100 µM | > 100 µM | 76.7 µM | > 100 µM | > 100 µM | – | – | – | – | – | – | – | – | – | –
C(CCC[Te][Te]CCCCCCOC1CCCCO1)CCOC1CCCCO1 (stereo not given) | – | 51.4 µM | 24.5 µM | 28.7 µM | 29 µM | – | – | 27.4 µM | – | – | – | – | – | – | – | – | – | –
O=C(Nc1nc2ccccc2n1Cc1ccccc1)NC12CC3CC(CC(C3)C1)C2 | > 100 µM | > 100 µM | > 100 µM | > 100 µM | > 100 µM | > 100 µM | > 100 µM | > 100 µM | – | – | – | – | – | – | – | – | – | –
